In patent US10577349B2 (Sanford Burnham Prebys Medical Discovery Institute, priority 2015, dated 2020) one finds IC50 data, which are given here for 21 compounds.

Each structure is given as a SMILES string.

The subject of assay [1] is A375. The assay can be described thus: 48 h Cytotoxicity A375. The settings on record: Homo sapiens, A-375. Type of assay: cell-based.
Assay [2] deals with EmCV Cap-independent translation. Nature of the assay: In vitro translation assay, FF-EmCV-Ren construct, cap-independent (Ren luciferase). Type of assay: biochemical, rabbit reticulocyte lysates. An excerpt: (§1) The bicistronic dual-reporter constructs that contain the firefly luciferase (FF) sequence, followed by the (encephalomyocarditis virus) EmCV and Hepatitis C virus (HCV) IRES, respectively, and the Renilla reniformis (Ren) luciferase sequence, has been previously described (Bordeleau Me., et al. Functional characterization of IRESes by an inhibitor of the RNA helicase eIF4A. Nature chemical biology. 2006; 2:213-20). For measurement of translation from the FF-EmCV-Ren and FF-HCV-Ren constructs, rabbit reticulocyte lysates (RRL) (Life Technologies, Carlsbad, Calif., USA) and the Dual-Glo (Promega, Madison, Wis., USA) read-outs were chosen. Two μl rabbit reticulocyte lysates mixed with Translation Mix 20× (-Met) and Translation Mix 20× (-Leu) in a ratio of 1:1 were pre-incubated with test compounds in 1536-well plates for 1 h at room temperature. Then, translation was started by adding 0.1 μg RNA per well and incubated for 2 h at 30° C. After a short chill phase, 2.5 μl Dual-Glo reagent 1 was added to each well and incubated for 10 min before reading the FF luciferase activity with the ViewLux uHTS Microplate Imager (Perkin Elmer, Waltham, Mass., USA). Directly after, 2.5 μl Dual-Glo reagent 2 was dispensed to each well and incubated at room temperature for 10 min before reading the Ren luciferase activity on the ViewLux. To exclude the possibility that test compounds interfere with any of the luciferase activities, a counter assay was performed in which the compounds were added after the completion of the in vitro translation.

For assay [3], the target named is HCV cap-independent translation. The assay can be described thus: In vitro translation assay, FF-HCV-Ren construct, cap-independent (Ren luciferase). Type of assay: biochemical, rabbit reticulocyte lysates.
Excerpt: as §1

Assay [4] addresses HCV cap-dependent translation. The assay can be described thus: In vitro translation assay, FF-HCV-Ren construct, cap-dependent (FF luciferase). Type of assay: biochemical, rabbit reticulocyte lysates.
Excerpt: as §1

In assay [5] the target is EmCV Cap-dependent translation. Nature of the assay: In vitro translation assay, FF-EmCV-Ren construct, cap-dependent (FF luciferase). Type of assay: biochemical, rabbit reticulocyte lysates.
Excerpt: as §1

`O=C(/C(Br)=C/c1cncc(F)c1)c1c(-c2ccccc2)c2cc(Cl)ccc2[nH]c1=O` (single isomer, unassigned) [Compound 110, 3-[(2Z)-2-bromo-3-(5-fluoro(3-pyridyl))prop-2-enoyl]-6-chloro-4-phenylhydroquinolin-2-one]: the IC50 in assay [1], in assay [2], in assay [3], in assay [4] and in assay [5] was 2 to 10 µM each time.

As to `O=C(/C=C/c1nc2ccccc2[nH]1)c1c(-c2ccc(C(F)(F)F)cc2)c2cc(Cl)ccc2[nH]c1=O` [Compound 1, 3-(3-1H-Benzoimidazol-2-yl-acryloyl)-6-chloro-4-(4-trifluoromethyl-phenyl)-1H-quinolin-2-one], the IC50 in assay [1], in assay [2], in assay [3], in assay [4] and in assay [5] was 2 to 10 µM in each case.

For `O=C(/C=C/c1nc2ccccc2[nH]1)c1c(-c2ccc(OC(F)(F)F)cc2)c2cc(Cl)ccc2[nH]c1=O` [Compound 2, 3-(3-1H-Benzoimidazol-2-yl-acryloyl)-6-chloro-4-(4-trifluoromethoxy-phenyl)-1H-quinolin-2-one], the IC50 is less than 2 µM in assay [1]; 2 to 10 µM in assay [2]; 2 to 10 µM in assay [3]; 2 to 10 µM in assay [4]; 2 to 10 µM in assay [5].

Turning to `COc1ccc(-c2c(C(=O)/C=C/c3nc4ccccc4[nH]3)c(=O)[nH]c3ccc(Cl)cc23)cc1` [Compound 3, 3-(3-1H-Benzoimidazol-2-yl-acryloyl)-6-chloro-4-(4-methoxy-phenyl)-1H-quinolin-2-one], the IC50 in assay [1] was less than 2 µM; in assay [2] it was more than 20 µM; in assay [3] it was more than 20 µM; in assay [4] it was 10 to 20 µM; in assay [5], 10 to 20 µM.

As to `Cc1ccc(-c2c(C(=O)/C=C/c3nc4ccccc4[nH]3)c(=O)[nH]c3ccc(Cl)cc23)cc1` [Compound 4, 3-(3-1H-Benzoimidazol-2-yl-acryloyl)-6-chloro-4-p-tolyl-1H-quinolin-2-one], the IC50 in assay [1], in assay [2], in assay [3], in assay [4] and in assay [5] was 2 to 10 µM in each case.

On to `O=C(/C=C/c1nc2ccccc2[nH]1)c1c(-c2ccc(Cl)cc2)c2cc(Cl)ccc2[nH]c1=O` [Compound 5, 3-(3-1H-Benzoimidazol-2-yl-acryloyl)-6-chloro-4-(4-chloro-phenyl)-1H-quinolin-2-one], for which the IC50 in assay [1] was less than 2 µM; in assay [2] it was 10 to 20 µM; in assay [3], 10 to 20 µM; in assay [4] it was 10 to 20 µM; in assay [5], 2 to 10 µM.

For the compound `O=C(/C=C/c1nc2ccccc2[nH]1)c1c(-c2cccnc2)c2cc(Cl)ccc2[nH]c1=O` [Compound 6, 3-(3-1H-Benzoimidazol-2-yl-acryloyl)-6-chloro-4-pyridin-3-yl-1H-quinolin-2-one], the IC50 is more than 20 µM in assay [1]; 2 to 10 µM in assay [2]; 10 to 20 µM in assay [3]; 10 to 20 µM in assay [4]; 2 to 10 µM in assay [5].

`O=C(/C=C/c1ccccc1)c1c(-c2cccnc2)c2cc(Cl)ccc2[nH]c1=O` [Compound 7, 6-Chloro-3-(3-phenyl-acryloyl)-4-pyridin-3-yl-1H-quinolin-2-one]: the IC50 lay in the range of 10 to 20 µM in assay [1]; 10 to 20 µM in assay [2]; 10 to 20 µM in assay [3]; 10 to 20 µM in assay [4]; 2 to 10 µM in assay [5].

As for `O=C(/C=C/c1nc2ccccc2[nH]1)c1c(-c2ccccn2)c2cc(Cl)ccc2[nH]c1=O` [Compound 8, 3-(3-1H-Benzoimidazol-2-yl-acryloyl)-6-chloro-4-pyridin-2-yl-1H-quinolin-2-one], the IC50 is 10 to 20 µM in assay [1]; more than 20 µM in assay [2]; more than 20 µM in assay [3]; more than 20 µM in assay [4]; more than 20 µM in assay [5].

With `O=C(/C=C/c1nc2ccccc2[nH]1)c1c(-c2cccs2)c2cc(Cl)ccc2[nH]c1=O` [Compound 9, 3-(3-1H-Benzoimidazol-2-yl-acryloyl)-6-chloro-4-thiophen-2-yl-1H-quinolin-2-one], the IC50 was in the range of 2 to 10 µM in assay [1]; 2 to 10 µM in assay [2]; 10 to 20 µM in assay [3]; 10 to 20 µM in assay [4]; 2 to 10 µM in assay [5].

Turning to `O=C(/C=C/c1ccccc1)c1c(-c2cccs2)c2cc(Cl)ccc2[nH]c1=O` [Compound 10], the IC50 in assay [1] is more than 20 µM; in assay [2], 2 to 10 µM; in assay [3] it was 2 to 10 µM; in assay [4] it was 10 to 20 µM; in assay [5], 2 to 10 µM.

`O=C(/C=C/c1nc2ccccc2[nH]1)c1c(C2CCCCC2)c2cc(Cl)ccc2[nH]c1=O` [Compound 11, (E)-3-(3-(1H-benzo[d]imidazol-2-yl)acryloyl)-6-chloro-4-cyclohexylquinolin-2(1H)-one]: the IC50 in assay [1] is less than 2 µM; in assay [2], 2 to 10 µM; in assay [3] it was 2 to 10 µM; in assay [4], 2 to 10 µM; in assay [5], 2 to 10 µM.

With `O=C(/C=C/c1nc2ccccc2[nH]1)c1c(-c2ccccc2)c2cc([N+](=O)[O-])ccc2[nH]c1=O` [Compound 13, 3-(3-1H-Benzoimidazol-2-yl-acryloyl)-6-nitro-4-phenyl-1H-quinolin-2-one], the IC50 is 2 to 10 µM in assay [1]; 2 to 10 µM in assay [2]; 2 to 10 µM in assay [3]; 10 to 20 µM in assay [4]; 2 to 10 µM in assay [5].

Regarding `Nc1ccc2[nH]c(=O)c(C(=O)CCc3nc4ccccc4[nH]3)c(-c3ccccc3)c2c1` [Compound 14, 6-Amino-3-(3-1H-benzoimidazol-2-yl-propionyl)-4-phenyl-1H-quinolin-2-one], the IC50 in assay [1], in assay [2], in assay [3], in assay [4] and in assay [5] was more than 20 µM throughout.

Turning to `Nc1ccc2[nH]c(=O)c(C(=O)/C=C/c3nc4ccccc4[nH]3)c(-c3ccccc3)c2c1` [Compound 15, 6-Amino-3-(3-1H-benzoimidazol-2-yl-acryloyl)-4-phenyl-1H-quinolin-2-one], the IC50 in assay [1] was more than 20 µM; in assay [2] it was 10 to 20 µM; in assay [3], more than 20 µM; in assay [4], 10 to 20 µM; in assay [5], 10 to 20 µM.

For `O=C(/C=C/c1ccccc1)c1c(-c2ccccc2)c2cc([N+](=O)[O-])ccc2[nH]c1=O` [Compound 16, 6-Nitro-4-phenyl-3-(3-phenyl-acryloyl)-1H-quinolin-2-one], the IC50 in assay [1] lay within 2 to 10 µM; in assay [2] it was 2 to 10 µM; in assay [3] it was 2 to 10 µM; in assay [4], 10 to 20 µM; in assay [5], 2 to 10 µM.

With `CN(C)c1ccc(/C=C/C(=O)c2c(-c3ccccc3)c3cc([N+](=O)[O-])ccc3[nH]c2=O)cc1` [Compound 17, 3-[3-(4-Dimethylamino-phenyl)-acryloyl]-6-nitro-4-phenyl-1H-quinolin-2-one], the IC50 in assay [1], in assay [2], in assay [3], in assay [4] and in assay [5] was more than 20 µM in each case.

On to `O=C(/C=C/c1nc2ccccc2[nH]1)c1c(-c2ccccc2)c2cc(C(F)(F)F)ccc2[nH]c1=O` [Compound 19, 3-(3-1H-Benzoimidazol-2-yl-acryloyl)-4-phenyl-6-trifluoromethyl-1H-quinolin-2-one], for which the IC50 in assay [1] lay in the range of 2 to 10 µM; in assay [2], 2 to 10 µM; in assay [3] it was 10 to 20 µM; in assay [4], 10 to 20 µM; in assay [5], 2 to 10 µM.

Turning to `O=C(/C=C/c1nc2ccccc2[nH]1)c1c(-c2ccccc2)c2cc(F)ccc2[nH]c1=O` [Compound 20, 3-(3-1H-Benzoimidazol-2-yl-acryoyl)-6-fluoro-4-phenyl-1H-quinolin-2-one], the IC50 is less than 2 µM in assay [1]; more than 20 µM in assay [2]; more than 20 µM in assay [3]; 10 to 20 µM in assay [4]; 10 to 20 µM in assay [5].

Take `COc1ccc2[nH]c(=O)c(C(=O)/C=C/c3nc4ccccc4[nH]3)c(-c3ccccc3)c2c1` [Compound 21, 3-(3-1H-Benzoimidazol-2-yl-acryloyl)-6-methoxy-4-phenyl-1H-quinolin-2-one]: the IC50 in assay [1] is 2 to 10 µM; in assay [2] it was 10 to 20 µM; in assay [3], 10 to 20 µM; in assay [4] it was more than 20 µM; in assay [5], 10 to 20 µM.

Turning to `O=C(/C=C/c1nc2ccccc2[nH]1)c1c(-c2ccccc2)c2ccncc2[nH]c1=O` [Compound 22, 3-(3-1H-Benzoimidazol-2-yl-acryloyl)-4-phenyl-1H-[1,7]naphthyridin-2-one], the IC50 is more than 20 µM in assay [1]; 10 to 20 µM in assay [2]; 10 to 20 µM in assay [3]; 10 to 20 µM in assay [4]; 10 to 20 µM in assay [5].

As a reminder, the IC50 is the concentration needed to halve the response being measured. Low readings indicate higher potency, high ones lower potency.
